Experimental data reported in patent publication US11584713B2, “25-hydroxycholecalciferol monohydrate crystal, preparation method therefor and microemulsion using same” (SHANDONG HAINENG BIOENGINEERING CO., LTD., priority 2018, dated 2023).

What was measured:
[1] = Stability test, left open at 25° C., content of 25-hydroxycholecalciferol by HPLC; type: physicochemical; settings: for Content of 25-hydroxycholecalciferol: left open at 25° C.
Method: 6. Stability Test the 25-hydroxycholecalciferol monohydrate crystal prepared in the present embodiment was left open at 25° C., and a content of 25-hydroxycholecalciferol contained therein was tested after one month, three months and six months respectively, and meanwhile, 25-hydroxycholecalciferol was used as a control example, and the results were shown in Table 2. The content of 25-hydroxycholecalciferol was measured by the following method: taking a sample to prepare a solution of about 10 μg/mL, injecting 20 μL for a HPLC analysis, and calculating the content thereof according to an external standard method. Test conditions of the HPLC were as follows: chromatographic column: C18 column; internal diameter: 4.6 mm; length: 150 mm, particle size: 5 μm; detection wavelength: 265 nm; temperature of column: 30° C.; flow rate: 1.5 mL/min (which may be adjusted according to desired retention time and a degree of separation of 25-hydroxycholecalciferol and a 25-hydroxycholecalciferol precursor); injection volume: 20 uL; and recording time: 2 times the retention time of main peak.

[2] = cited from earlier work

SMILES	Loss of 25-hydroxycholecalciferol (in words) ([1]; after six months of being left open at 25° C.)	Content of 25-hydroxycholecalciferol ([1]; 0 day) [%]	Content of 25-hydroxycholecalciferol ([1]; one month) [%]	Content of 25-hydroxycholecalciferol ([1]; six months) [%]	Content of 25-hydroxycholecalciferol ([1]; three months) [%]	solubility in diethyl ether ([2]; diethyl ether)	solubility in dimethyl sulfoxide ([2]; dimethyl sulfoxide)	solubility in ethanol ([2]; ethanol)	solubility in methanol ([2]; methanol)	solubility in water ([2]; water)
C=C1CC[C@H](O)C/C1=C/C=C1\CCC[C@]2(C)[C@@H]([C@H](C)CCCC(C)(C)O)CC[C@@H]12 [25-hydroxycholecalciferol monohydrate]	almost no loss	99.60	99.05	96.59	98.46					
C=C1CC[C@H](O)C/C1=C/C=C1\CCC[C@]2(C)[C@@H]([C@H](C)CCCC(C)(C)O)CC[C@@H]12 [25-hydroxycholecalciferol]		99.23	65.03	29.61	47.65	slightly soluble	easily soluble	easily soluble	easily soluble	almost insoluble
